{
  "source": "patent US8445492B2",
  "about": "“Method for inhibiting growth of cancer cells and cell telomere and diseases of cell proliferation by using heteroannelated anthraquinone derivative compounds” (National Defense Medical Center, priority 2008, dated 2013)",
  "format_in_all_cases": "cell-based",
  "details_in_all_cases": "1.0×10^−5 molal concentration (M)",
  "key": {"[1]": {"test_system": "UACC-257", "experiment": "in vitro test at 1.0×10^−5 M, Skin cancer cell"}, "[2]": {"test_system": "MCF7", "experiment": "in vitro test at 1.0×10^−5 M, Breast cancer cell"}, "[3]": {"test_system": "UO-31", "experiment": "in vitro test at 1.0×10^−5 M, Kidney cancer cell"}, "[4]": {"test_system": "T-47D", "experiment": "in vitro test at 1.0×10^−5 M, Breast cancer cell"}},
  "data": [
    {"molecule": "CCc1nc2ccc3c(c2[nH]1)C(=O)c1ccccc1C3=O", "note": "[No. 4, 2-Ethyl-1(3)H-anthra[1,2-d]imidazole-6,11-dione]", "values": [
      {"measurement": "inhibition effect on cancer cell line (Table 2 value)", "setting": "[1]", "value": 39.69},
      {"measurement": "inhibition effect on cancer cell line (Table 2 value)", "setting": "[2]", "value": 69.82},
      {"measurement": "inhibition effect on cancer cell line (Table 2 value)", "setting": "[3]", "value": 23.94},
      {"measurement": "inhibition effect on cancer cell line (Table 2 value)", "setting": "[4]", "value": 63.05}
    ]}
  ]
}
